Assay results: article PMC11823609, “Advancements in the fight against globally distributed OXA-48 carbapenemase: evaluating the new generation of carbapenemase inhibitors” (Antimicrobial Agents and Chemotherapy, 2025)
Converted amounts (≈) assume the structure as drawn. Read-outs that look alike come from different tables or passages of the source.

Assays:
OXA-48 [1] = molecular target: T1, OXA-48 (Klebsiella pneumoniae, UniProt Q6XEC0); assay: Partition ratio / turnover number (tn), I/E for >90% inhibition; type: biochemical; design: These primers amplified the blaOXA-48 gene without the signal peptide; GST (glutathione S-transferase, pGEX-6P-1) (N, cleaved yes); made in house; host or cells: E. coli BL21; conditions: 15 min incubation, 500 nM enzyme
T1 sequence (Q6XEC0 23-265 limits assumed): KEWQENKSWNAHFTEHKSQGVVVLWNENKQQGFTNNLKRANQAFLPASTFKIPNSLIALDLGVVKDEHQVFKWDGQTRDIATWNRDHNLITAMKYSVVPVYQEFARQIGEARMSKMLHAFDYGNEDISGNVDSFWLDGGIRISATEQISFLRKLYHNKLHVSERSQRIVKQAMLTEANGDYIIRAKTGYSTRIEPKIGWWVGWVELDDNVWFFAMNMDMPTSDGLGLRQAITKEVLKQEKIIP
Procedure: (§1) OXA-48 was cloned, produced, and purified following the procedures described in the supplemental methods. The steady-state inhibition constants (Ki app) and kinetics of inhibition (such as k2/K , koff, Kd, and tn) were determined following previously established protocols, are also outlined in the supplemental methods.
The evaluation involved exposure to increasing concentrations of inhibitors plus 500 nM of enzyme, at different molar I/E ratios.

OXA-48 [2] = molecular target: T1, OXA-48; assay: Dissociation rate (koff) by jump dilution; t1/2 and Kd; type: biochemical; design: These primers amplified the blaOXA-48 gene without the signal peptide; GST (glutathione S-transferase, pGEX-6P-1) (N, cleaved yes); made in house; host or cells: E. coli BL21; conditions: for Kd: koff/kon; for residence time: read-out: t1/2 (residence time)
Procedure: as §1
The dissociation rate constant (koff) was determined using a “jump dilution” method in which OXA-48 enzyme activity was monitored over time as the BLI dissociates. […] Subsequently, the reaction mixture was diluted 10,000-fold dilution in the reaction buffer. […] Absorbance was recorded at 60-s intervals over a 2-h period at RT. The resulting reaction progress curve was fitted to equation 4, which includes the exponential function (6). […] From the fit, GraphPad Prism software, (MA, USA) also calculates the dissociation half-time (t1/2), in min.
koff was obtained directly from the dissociation experiment and kon was previously calculated, thus finally Kd was calculated as the fraction between koff and kon.
P= Vs x t + (V0-Vs) x [1– exp ^(-k^off x ^t)] / koff (4)

OXA-48 [3] = molecular target: T1, OXA-48; assay: Inhibition efficiency / onset of acylation (k2/K), nitrocefin reporter; type: biochemical; design: These primers amplified the blaOXA-48 gene without the signal peptide; GST (glutathione S-transferase, pGEX-6P-1) (N, cleaved yes); made in house; host or cells: E. coli BL21; conditions: for kinact/KI: pH 7.4, read-out: k2/K, nitrocefin reporter; for k2/K: nitrocefin reporter
Procedure: as §1
(§2) Ki app serves as an equilibrium constant, calculable from […] conditions and indicates the formation of the enzyme acyl E-S complex. […] Plotting the inverse initial velocities (1/V0) against inhibitory concentrations ([I]) facilitated fitting the data to a linear equation. The intersection, divided by the slope of the line, was defined as the observed Ki app.
k2/K = k2/kobs × [([S]/Km NCF) + 1] (3)

OXA-48 [4] = molecular target: T1, OXA-48; assay: Steady-state inhibition constant (Ki app), nitrocefin reporter; type: biochemical; design: These primers amplified the blaOXA-48 gene without the signal peptide; GST (glutathione S-transferase, pGEX-6P-1) (N, cleaved yes); made in house; host or cells: E. coli BL21; conditions: nitrocefin 300 µM reporter, 25 °C, pH 7.4
Procedure: as §1, §2
Ki app (corrected)= Ki app (observed) / [ 1+ ([S]/KmNFC)] (2)

[5] = test system: OXA-48-producing Enterobacterales clinical isolates; assay: MIC summary over clinical isolates; type: cell-based
Procedure: The efficacy of these new BLIs was also evaluated against 18 genetically diverse WGS-characterized collection of OXA-48-positive Enterobacterales recovered as part of the Carbapenem-resistant Enterobacterales Genome Database Project (https://genomes.cnag.cat/incredble) listed in Table S2 ([13]). Combinations of clinical isolates (five pairs of Klebsiella pneumoniae, two pairs of Enterobacter cloacae, and two pairs of E. coli) were chosen for analysis: (i) nine strains carrying ESBLs; and (ii) nine strains (genetically closer available strains) without ESBLs.
(§3) The MICs of each of the individual compounds (antibiotics or inhibitors) were also determined. The MICs were determined for the E. coli isogenic expressing OXA-48 (and both OXA-48 and CTX-M-14) to assess their activity against the carbapenemase; MICs were also determined for the 18 Enterobacterales clinical isolates in order to evaluate the new inhibitors against also their resistance concomitant mechanisms. The MICs were determined in triplicate experiments, and the EUCAST 13.0 clinical breakpoints were followed (http://www.eucast.org/clinical_breakpoints).
(§4) For comparative evaluation of the activity of each inhibitor alone against the carbapenemase OXA-48, all inhibitors (at 4 mg/L) were tested in the presence of a carbapenem (ertapenem, adequate substrate) and a cephalosporin (ceftazidime, poor substrate) as reporter substrates. This prevented any possible masking effect produced by the different partner antibiotics. These assays were also performed with isogenic transformants and clinical isolates.

[6] = test system: E. coli HB4 ΔompC/F (CTX-M-14); assay: microbe, parasite or virus in culture; type: cell-based, Escherichia coli
E. coli HB4 ΔompC/F = assay: microbe, parasite or virus in culture; type: cell-based, Escherichia coli
Procedure, shortened: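 Triplicate MICs; EUCAST 13.0 breakpoints. Isogenic E. coli TG1 and porin-deficient HB4 expressing OXA-48 ± CTX-M-14. Compounds also tested individually.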

[7] = test system: E. coli TG1 and HB4 transformants; assay: MIC summary over E. coli transformants; type: cell-based, Escherichia coli; conditions: for effect of ertapenem/BLI on bacterial growth / decrease of ertapenem MIC with BLI: OXA-48-producing E. coli hosts, BLI 4 mg/L; for MICs of inhibitor alone (range over strains): TG1 and HB4 E. coli
Excerpt: The E. coli HB4 strain was used to gain a more complete perspective, by evaluating the involvement in resistance of a low permeability background with the carbapenemase OXA-48, as well as coproduction of an ESBL and the carbapenemase; thus, the ESBL CTX-M-14 and OXA-48 were cloned together and separately into E. coli HB4. The characteristics of these strains and transformants are summarized in Table S1, and the cloning procedures are outlined in the supplemental methods.
as §3, §4

OXA-48 [8] = molecular target: T1, OXA-48; design: These primers amplified the blaOXA-48 gene without the signal peptide; GST (glutathione S-transferase, pGEX-6P-1) (N, cleaved yes); made in house; host or cells: E. coli BL21; method as in earlier work; conditions: ref 5 Hecker et al.; cited from earlier work

Row | Compound | tn (partition ratio, I:E) (OXA-48 [1]) | koff (OXA-48 [2]; jump dilution, read-out: koff) | Kd (OXA-48 [2]) | residence time (OXA-48 [2]) | kinact/KI (OXA-48 [3]) | Ki (OXA-48 [4]) | decrease of meropenem MIC by BLI ([5]; clinical isolates) | MIC ([6]; Escherichia coli) | MIC (E. coli HB4 ΔompC/F; Escherichia coli) | effect of ertapenem/BLI on bacterial growth [7] | MICs of inhibitor alone (range over strains) [7] | koff (OXA-48 [2]) | higher inhibitory activity (Ki) for OXA-48 than avibactam (OXA-48 [8]) | higher inhibitory activity (Ki) for OXA-48 than vaborbactam (OXA-48 [8]) | k2/K (OXA-48 [3]) | decrease of ertapenem MIC with BLI [7] | MIC of inhibitor alone (range over isolates) ([5]; 18 clinical isolates) | reduction of cefepime MICs by BLI ([5]; clinical isolates) | MIC ([6]; E. coli HB4 ΔompC/F (CTX-M-14), ceftazidime alone or with BLI at 4 mg/L) | MIC (E. coli HB4 ΔompC/F; E. coli HB4 ΔompC/F, ceftazidime alone or with BLI at 4 mg/L)
1 | NCCONC(=O)[C@@H]1CC[C@@H]2CN1C(=O)N2OS(=O)(=O)O [Nacubactam, nacubactam] | 70 | 0.0002 s⁻¹ | 41000 nM | 57.7 ± 7.5 min | 4.88 ± 2.11 M⁻¹ s⁻¹ | > 800000 nM | 0–32 fold | 2 µg/mL (≈ 6.17 µM) | 2 µg/mL (≈ 6.17 µM) | totally inhibited bacterial growth | 0.12 to 2 mg/L |  |  |  |  |  |  |  |  | 
2 | O=C(O)C[C@@H]1CC[C@H](NC(=O)Cc2cccs2)B(O)O1 [Vaborbactam, vaborbactam] | >3,000 |  |  | 44.4 ± 1.6 min |  | 43600 nM |  | ≥ 128 µg/mL | ≥ 128 µg/mL |  |  | 2.6 × 10^−4 ± .5 10^−4 s^−1 |  |  |  |  |  |  |  | 
3 | O=C(O)c1c(F)ccc2c1OB(O)[C@@H]1C[C@H]21 [Xeruborbactam, xeruborbactam] | 1 | 0.0002 s⁻¹ | 0.63 nM | 57.7 ± 9.6 min | 313000 M⁻¹ s⁻¹ | 18 ± 2 nM |  | 16 µg/mL (≈ 72.1 µM) | 16 µg/mL (≈ 72.1 µM) |  |  |  | 96 fold | 50,000 fold | 310000 M⁻¹ s⁻¹ | 8–256 fold |  |  |  | 
4 | CC1=C[C@@H]2CN(C(=O)N2OS(=O)(=O)O)[C@@H]1C(N)=O [Durlobactam, durlobactam] | 1 | 9.5e-06 s⁻¹ | 0.07 ± 0.01 nM | 1220 ± 213 min | 140000 M⁻¹ s⁻¹ | 103 ± 24 nM |  | 1 µg/mL (≈ 3.61 µM) | 0.5 µg/mL (≈ 1.8 µM) | totally inhibited bacterial growth | 0.12 to 2 mg/L |  |  |  | 142000 ± 38000 M⁻¹ s⁻¹ |  | 0.25 to 4 µg/mL |  |  | 
5 | NCCN[C@H]1CC[C@H](CC(=O)N[C@H]2Cc3cccc(C(=O)O)c3OB2O)CC1 [Taniborbactam, taniborbactam] | 200 | 0.00023 s⁻¹ |  | 50.2 ± 8.2 min |  | 75 ± 15 nM |  | ≥ 128 µg/mL | ≥ 128 µg/mL |  |  |  |  |  |  | 8–256 fold |  | 2–512 fold |  | 
6 | CC(C)(O/N=C(\C(=O)N[C@@H]1C(=O)N2C(C(=O)[O-])=C(C[n+]3ccccc3)CS[C@H]12)c1csc(N)n1)C(=O)O [CAZ, ceftazidime] |  |  |  |  |  |  |  | 16 µg/mL (≈ 29.3 µM) | 1 µg/mL (≈ 1.83 µM) |  |  |  |  |  |  |  |  |  | 16 µg/mL (≈ 29.3 µM) | 1 µg/mL (≈ 1.83 µM)
